One data set concerns MCF-7-cells. In words: Concentration dependent cytotoxicity test (IC50) on MCF-7 cells. The data set is classed as cell-based.
In the next data set the test system is MDA-MB-231-cells. The data set is described as follows: Concentration dependent cytotoxicity test (IC50) on MDA-MB-231 cells. The data set is classed as cell-based.
The subject of data set [1] is supercoiled plasmid DNA (pSK Bluescript). The data set is described as follows: DNA cleavage reactions with plasmid DNA on agarose gels. The data set is classed as biochemical. The following applies: for DNA cleaving effect: 1 h at 37 °C. Here is the method: General procedure for DNA cleavage reactions with plasmid DNA on agarose gels
100 µl reaction mixture contained 1 µg of supercoiled plasmid DNA (pSK Bluescript) in a tris-HCI buffer at pH 7.0, 1 µl of iron complex solution at the desired concentration (10 mM to 10 µM in DMSO) and in some cases 1 µl of 100 µM dithiothreitol solution resp. 1 µl of 1 mM mercaptoethanol solution. After incubation at 37 °C for the indicated time, 1 µl of loading buffer (0.25 % bromophenol blue, 0,25 % xylene cyanol, 30 % glycerin in H2O) was added to 5 µl reaction mixture (containing 50 ng plasmid DNA) and subsequently loaded onto a 0.8 % agarose gel. One µl of 1 kb-DNA-ladder (NewEnglandBiolabs, #N3232L) was loaded for estimation of size and amount of loaded DNA sample. The electrophoresis was carried out for ~ 45 min at 100 V in TBE buffer at pH 8.3. Gels were stained with etidium bromide (1 µg/ml) and photographed under 254 nm UV light.

Data set [2] concerns MCF-7 cells. In words: Time dependent test (crystal violet assay) on MCF-7 cells. The format is cell-based.
For a further data set, the system named is MDA-MB-231 cells. The data set is described as follows: Time dependent test (crystal violet assay) on MDA-MB-231 cells. The data set is classed as cell-based.
A further data set deals with HeLa cells. The data set is described as follows: Time dependent test (crystal violet assay) on HeLa cells. The data set is classed as cell-based.
The next data set deals with LNCaP-FGC-cells. In words: Time dependent test (crystal violet assay) on LNCaP-FGC-cells. The data set is classed as cell-based. Here is the method: The time dependent tests were performed according to Reile, H. et al.: "Computerized Determination of Growth Kinetic Curves and Doubling Times from Cells in Microculture", Analytical Biochemistry, 1990, 187 (2): 262-267; Bernhardt, G. et al.: "Standardized kinetic microassay to quantifiy differential chemosensitivity on the basis of proliferative activity", Journal of Research Clin. Oncol., 1992, 118: 35-43 and Gust, R. et al.: "Development of Cobalt(3,4-diarylsalen) Complexes as Tumor Therapeutics", Journal of Medicinal Chemistry, 2004, 47 (24): 5837-5846.
Determining the cell mass in the crystal violet assay the interpretation of the received values was the following: […]

Data set [3] relates to MCF-7 cells. The following applies: Ghezzi, A. et al., 2004; cited from earlier work.
Setting [4] is: Homo sapiens, MCF7, MCF-7, stopped after 96 hours, read-out: IC50.
Setting [5] is: Homo sapiens, MDA-MB-231, stopped after 72 hours, read-out: IC50.
Where [6] appears, read: MCF-7, stopped after 96 hours, read-out: IC50.
The mark [7] stands for this setting: MDA-MB-231, stopped after 72 hours, read-out: IC50.
Setting [8] is: higher concentrations (1-10 µM).
Where [9] appears, read: low concentrations (0,1 µM), in the presence of a reducing agent.

Where two headings read alike, the source gives them in different places.

By IC50 is commonly meant the concentration that inhibits the measured activity by half.

Procedure for MCF-7-cells: (§1) Measurement of IC50-values was performed as described by Ott, I. et al., Journal of Medicinal Chemistry, 2005, 48 (2): 622-629. But unlike described in the literature, the experiments with MCF-7-cells were stopped after 96 hours and experiments with MDA-MB-231-cells were stopped after 72 hours.
Procedure for MDA-MB-231-cells: as §1

Regarding `Nc1ccccc1N` [o-phenylenediamine], the IC50 in the data set on MCF-7-cells (setting [4]) was found to be 5.1 µM; in the data set on MDA-MB-231-cells (setting [5]), 23.5 µM.

As for `[Cl][Fe]([Cl])[Cl]` [FeCl3], the IC50 with MCF-7-cells (setting [6]) and with MDA-MB-231-cells (setting [7]) was above 100 µM in each case.

Consider `[Cl-].[Fe+3].[O-]c1ccccc1C=Nc1ccccc1N=Cc1ccccc1[O-]` [Fe(III)salophen chloride, [N,N'-Bis(salicylidene)phenylene-1,2-diamine]-iron(III)-chloride], for which the DNA cleaving effect entry in data set [1] (setting [8]) is listed as “DNA double strand breakages”; in data set [1] (setting [9]), “DNA single strand breakages”. The IC50 was found to be 0.3 µM in the data set with MCF-7-cells (setting [6]) and 0.01 µM in the data set with MDA-MB-231-cells (setting [7]). The “minimum T/Ccorr- resp. τ-value” in the data set on MCF-7 cells [2] (MCF-7, 0.05 µM) is on record as 92.6%; in the data set with MCF-7 cells [2] (MCF-7, 0.1 µM), 80.4%; in the data set with MCF-7 cells [2] (MCF-7, 0.5 µM) it was -23.4%; in the data set on MCF-7 cells [2] (MCF-7, 1 µM) it was -50.8%; in the data set with MDA-MB-231 cells (MDA-MB-231, 0.05 µM) it was 46.0%; in the data set on MDA-MB-231 cells (MDA-MB-231, 0.1 µM) it was 66.2%. Moreover, the “minimum T/Ccorr- resp. τ-value” is -27.8% with MDA-MB-231 cells (MDA-MB-231, 0.5 µM); -40.8% in the data set with MDA-MB-231 cells (MDA-MB-231, 1 µM); 36.2% in the data set on HeLa cells (0.1 µM); 52.1% with HeLa cells (0.5 µM); -26.0% in the data set with HeLa cells (1 µM); 34.4% in the data set with LNCaP-FGC-cells (0.1 µM). Also, the entries for the “minimum T/Ccorr- resp. τ-value” in the data set with LNCaP-FGC-cells (0.5 µM) and with LNCaP-FGC-cells (1 µM) were 3.6% and -19.5%, respectively. Also, the “effect on cell mass (interpretation of T/Ccorr resp. τ)” value in the data set with MCF-7 cells [2] (MCF-7, 0.5 µM) was “cytocide effect (T/Ccorr or τ < 0 %)”.

For the molecule `Oc1ccccc1C=Nc1ccccc1N=Cc1ccccc1O` [ligand, N,N'-bis(salicylidene)-phenylene-1,2-diamine, reference compound], the DNA decomposition result in data set [1] (1 h incubation at 37 °C, with or without additional reducing agents (DTT, 2-ME)) is reported as “not able to decompose DNA”.

On to `O=c1[nH]cc(F)c(=O)[nH]1` [5-fluorouracil], for which the IC50 in the data set on MCF-7-cells (setting [4]) was found to be 4.8 µM; in the data set on MDA-MB-231-cells (setting [5]) it was 9.6 µM.

Take `O=C1[O][Pt]2([NH][C@@H]3CCCC[C@H]3[NH]2)[O]C1=O` [Oxaliplatin]: the “minimum T/Ccorr- resp. τ-value” was 12.7% with LNCaP-FGC-cells (0.5 µM), -0.6% in the data set on LNCaP-FGC-cells (1 µM) and -31.0% in the data set with LNCaP-FGC-cells (5 µM). Besides, the “enrichment in comparison with the outer medium” value (shortened to “enrichment in comparison”) in the data set with MCF-7 cells [3] is reported as “sixfold”.

On to `N.N.[Cl][Pt][Cl]` [cisplatin, reference compound], for which the 50% inhibitory concentration (IC50) with MCF-7-cells (setting [6]) was found to be 2 µM; in the data set on MDA-MB-231-cells (setting [7]), 4 µM. In addition, the “minimum T/Ccorr- resp. τ-value” with MCF-7 cells [2] (MCF-7, 0.5 µM) stood at 55.1%; with MCF-7 cells [2] (MCF-7, 1 µM) it was 2.2%; in the data set with MDA-MB-231 cells (MDA-MB-231, 0.5 µM), 79.7%; in the data set on MDA-MB-231 cells (MDA-MB-231, 1 µM), 69.0%; in the data set on HeLa cells (0.5 µM) it was 55.9%; in the data set on HeLa cells (1 µM) it was 33.5%. The entries for the “minimum T/Ccorr- resp. τ-value” in the data set on LNCaP-FGC-cells (0.5 µM), with LNCaP-FGC-cells (1 µM) and with LNCaP-FGC-cells (5 µM) were 59.0%, 32.7% and 6.7%, respectively. In the data set on MCF-7 cells [3], the “enrichment in comparison” value was “fivefold”.

Consider `[Fe+2].[O-]c1ccccc1C=Nc1ccccc1N=Cc1ccccc1[O-]` [Fe(II)salophen, [N,N'-Bis(salicylidene)phenylene-1,2-diamine]-iron(II)], for which the DNA cleaving effect entry was “DNA double strand breakages” in data set [1] (setting [8]) and “DNA single strand breakages” in data set [1] (setting [9]). For the same molecule, the IC50 in the data set on MCF-7-cells (setting [6]) was 0.4 µM; with MDA-MB-231-cells (setting [7]), 0.1 µM. Moreover, the “minimum T/Ccorr- resp. τ-value” in the data set with MCF-7 cells [2] (MCF-7, 0.05 µM) was 96.5%; with MCF-7 cells [2] (MCF-7, 0.1 µM), 96.7%; in the data set on MCF-7 cells [2] (MCF-7, 0.5 µM) it was 35.7%; in the data set on MCF-7 cells [2] (MCF-7, 1 µM), -35.9%; in the data set with MDA-MB-231 cells (MDA-MB-231, 0.05 µM), 90.0%; with MDA-MB-231 cells (MDA-MB-231, 0.1 µM), 41.9%. For the same molecule, the “minimum T/Ccorr- resp. τ-value” was -19.1% with MDA-MB-231 cells (MDA-MB-231, 0.5 µM); -29.7% in the data set on MDA-MB-231 cells (MDA-MB-231, 1 µM); 47.3% in the data set on LNCaP-FGC-cells (0.1 µM); 8.9% with LNCaP-FGC-cells (0.5 µM); -25.6% with LNCaP-FGC-cells (1 µM).

For the molecule `N[C@@H](Cc1ccc(N(CCCl)CCCl)cc1)C(=O)O` [Melphalan], the IC50 with MCF-7-cells (Homo sapiens, MCF7, 96 h) was 5.7 µM; in the data set with MDA-MB-231-cells (Homo sapiens, MDA-MB-231, 72 h), 3.9 µM.

Consider `C#CCOC(=O)c1ccccc1OC(C)=O.[C-]#[O+].[C-]#[O+].[C-]#[O+].[C-]#[O+].[C-]#[O+].[C-]#[O+].[Co].[Co]` [Co-Ass, Hexacarbonyl[2-propyn-1-ylacetylsalicylat]dicobalt], for which the IC50 in the data set on MCF-7-cells (setting [6]) worked out at 1.4 µM; in the data set on MDA-MB-231-cells (setting [7]), 1.9 µM.

With `CC(=O)[O-].CC(=O)[O-].[Fe+2]` [Fe(OAc)2], the IC50 in the data set on MCF-7-cells (setting [6]) and in the data set on MDA-MB-231-cells (setting [7]) was above 50 µM each time.

In the case of `N.N.O=C([O-])C1(C(=O)[O-])CCC1.[Pt+2]` [Carboplatin], the “minimum T/Ccorr- resp. τ-value” in the data set on LNCaP-FGC-cells (0.5 µM) came to 69.5%; in the data set with LNCaP-FGC-cells (1 µM), 55.5%; with LNCaP-FGC-cells (5 µM) it was 19.6%. Besides, the “enrichment in comparison” value in the data set with MCF-7 cells [3] is reported as 1,6.

These data come from patent EP1949899A1, “Metal salophen complexes use in prevention and treatment of cancer” (Freie Universität Berlin, priority 2007, dated 2008).
